These results are taken from ChEMBL document CHEMBL4627294, “Synthesis and efficacy of pyrvinium-inspired analogs against tuberculosis and malaria pathogens” (Bioorg Med Chem Lett, 2020).

Series [1] relates to Plasmodium falciparum. Put plainly: Antimalarial activity against erythrocytic stage of Plasmodium falciparum 3D7 incubated for 50 hrs. It is filed as functional, organism-based. The note with it: 3D7, 50 h.
The test system of series [2] is CHO-K1. Put plainly: Cytotoxicity against CHOK1 cells. The note with it: Cricetulus griseus. It is filed as cell-based.
The nature of series [3]: Cytotoxicity against human HEK cells. It is filed as cell-based. The settings on record: HEK293.
Series [4] deals with NRK-49F. The series can be described thus: Cytotoxicity against rat NRK-49F cells. It is filed as cell-based.
The nature of series [5]: Selectivity index, ratio of IC50 for CHOK1 cells to IC50 for Plasmodium falciparum 3D7. It is filed as toxicity. The note with it: hamster, CHO-K1 cells; read-out: Ratio IC50.
The test system of series [6] is Mycobacterium tuberculosis. The series can be described thus: Antimycobacterial activity against Mycobacterium tuberculosis H37Rv assessed as inhibition of bacterial growth by MABA assay. In kind it is functional. A general note: Resazurin is reduced to fluorescent resorufin, in cell work by metabolically active cells.
Series [7] is described as follows: Selectivity index, ratio of IC50 for CHOK1 cells to MIC for Mycobacterium tuberculosis H37Rv. In kind it is toxicity. The settings on record: hamster, CHO-K1 cells.
Series [8] concerns Plasmodium falciparum. The series can be described thus: Antimalarial activity against drug-resistant Plasmodium falciparum Dd2. In kind it is functional, organism-based.
Series [9] concerns Plasmodium falciparum. The series can be described thus: Antimalarial activity against early ring stage of Plasmodium falciparum 3D7 assessed as parasite growth arrest at early trophozite stage at 3 times of IC50 incubated for 48 hrs by giemsa staining based light microscopy. In kind it is functional, organism-based.
In series [10] the test system is Plasmodium falciparum. The series can be described thus: Parasiticidal activity against early ring stage of Plasmodium falciparum 3D7 assessed as reduction in parasite growth incubated for 48 hrs followed by compound washed off and measured after 48 hrs incubation in normal medium. In kind it is functional, organism-based.
Series [11] deals with Plasmodium falciparum. Put plainly: Antimalarial activity against Plasmodium falciparum 3D7 assessed as inhibition of parasite growth incubated for 96 hrs. In kind it is functional, organism-based. The note with it: 3D7, 96 h.

Converted amounts (≈) assume the structure as drawn. The source made the active and inactive calls.

In general, IC50 refers to the concentration at which inhibition is half-maximal. A word on the MIC: it is the smallest concentration in the dilution series that meets the test's criterion for growth inhibition. Turning to `CN(C)c1ccc2c(ccc(/C=C/c3ccccc3[N+](=O)[O-])[n+]2C)c1`, the 50% inhibitory concentration (IC50) was 3.6 µM in [1], 73.9 µM in [2], 66.7 µM in series [3] and 69.5 µM in [4]. In addition, the selectivity ratio amounted to 20.5 in series [5] and 1.47 in [7]. Besides, in [6], the MIC turned out to be 50 µM.

For `CN(C)c1ccc2c(ccc(/C=C/c3ccccc3)[n+]2C)c1`, the IC50 in series [1] worked out at 0.089 µM; in series [2] it was 41.6 µM; in series [3] it was 39.8 µM; in series [4] it was 42.1 µM. The selectivity ratio in series [5] was 467; in [7], under 0.41. For the same molecule, the minimal inhibitory concentration (MIC) in [6] was over 100 µM.

For the molecule `C[C@@H]1CC[C@H]2[C@@H](C)C(=O)O[C@@H]3O[C@@]4(C)CC[C@@H]1[C@]32OO4` [ARTEMISININ], the IC50 in series [1] is 0.025 µM; in series [8], 0.021 µM.

Turning to `CN(C)c1ccc2c(ccc(/C=C/c3cccc(C#N)c3)[n+]2C)c1`, the IC50 was found to be 0.217 µM in series [1], 87.6 µM in series [2], 56 µM in series [3] and 59.5 µM in series [4]. The results for the selectivity ratio in series [5] and in [7] were 404 and 3.5, respectively. Moreover, in series [6], the MIC is 25 µM.

As for `CN(C)c1ccc2c(ccc(/C=C/c3c(Cl)cccc3Cl)[n+]2C)c1`, the half-inhibitory concentration (IC50) in series [1] was determined as 0.023 µM; in series [2] it was 7.92 µM; in series [3] it was 5.62 µM; in series [4], 5.23 µM; in series [8], 0.053 µM; in [11], 0.00237 µM. Besides, the selectivity ratio in series [5] was 344; in series [7] it was 2.53. Moreover, the outcome in [9] and in [10] was Active. The minimum inhibitory concentration (MIC) in series [6] stood at 3.12 µM.

For `Cc1cc(/C=C/c2ccc3cc(N(C)C)ccc3[n+]2C)c(C)n1-c1ccccc1`, the concentration for half-maximal inhibition (IC50) in series [1] is 0.774 µM; in series [2] it was 10.9 µM; in series [3], 16 µM; in series [4], 20.2 µM. In addition, the selectivity ratio was 14 in series [5] and 1.73 in series [7]. In addition, in series [6], the minimal inhibitory concentration (MIC) came out at 6.25 µM.

As for `CN(C)c1ccc2c(ccc(/C=C/c3cc(Cl)ccc3O)[n+]2C)c1`, the IC50 in series [1] is 0.441 µM; in series [2], 30.3 µM; in series [3], 15.3 µM; in series [4] it was 12 µM. Also, the selectivity ratio amounted to 68.7 in [5] and 9.72 in series [7]. For the same molecule, in series [6], the minimal inhibitory concentration (MIC) was 3.12 µM.

As to `CN(C)c1ccc2c(ccc(/C=C/c3c[nH]c4ccccc34)[n+]2C)c1`, the IC50 in series [1] amounted to 0.06 µM; in series [2] it was 11.4 µM; in [3], 10.6 µM; in series [4] it was 11.3 µM; in series [8], 0.097 µM. The results for the selectivity ratio in [5] and in [7] were 188 and 3.64, respectively. In series [6], the MIC is 3.12 µM.

As for `CN(C)c1ccc2c(ccc(/C=C/c3cc(Cl)cc(Cl)c3O)[n+]2C)c1`, the half-maximal inhibitory concentration (IC50) in series [1] was 2.47 µM; in series [2], 54.7 µM; in [3], 50.1 µM; in series [4], 49.1 µM. Besides, the selectivity ratio in series [5] came out at 22.1; in series [7], 2.18. The MIC in series [6] is 25 µM.

`Cc1cc(/C=C/c2ccc3cc(N(C)C)ccc3[n+]2C)c(C)n1-c1ccccn1`: the IC50 in [1] worked out at 0.228 µM; in series [2], 15.2 µM; in series [3] it was 14.6 µM; in series [4], 12.7 µM. Besides, the selectivity ratio in [5] was found to be 66.2; in series [7], 2.42. For the same molecule, the MIC in series [6] was 6.25 µM.

Take `CN(C)c1ccc2c(ccc(/C=C/c3ccc(Cl)c(Cl)c3)[n+]2C)c1`: the concentration for half-maximal inhibition (IC50) in series [1] turned out to be 0.087 µM; in series [2], 12.4 µM; in series [3], 8.56 µM; in [4], 11.3 µM. In addition, the figures for the selectivity ratio in series [5] and in [7] were 142 and 3.98, respectively. The minimal inhibitory concentration (MIC) in series [6] is 3.12 µM.

As to `CN(C)c1ccc2c(ccc(/C=C/c3ccc(C#N)cc3)[n+]2C)c1`, the concentration for half-maximal inhibition (IC50) stood at 0.094 µM in series [1], 52.6 µM in series [2], 62.1 µM in series [3] and 50.2 µM in series [4]. Besides, the selectivity ratio in [5] turned out to be 553; in series [7] it was 1.05. The MIC in series [6] came out at 50 µM.

As for `CCc1nc(N)nc(N)c1-c1ccc(Cl)cc1` [PYRIMETHAMINE], the half-maximal inhibitory concentration (IC50) in series [1] was 0.011 µM.

For `CO[C@H]1/C=C/O[C@@]2(C)Oc3c(C)c(O)c4c(O)c(c(/C=N/N5CCN(C)CC5)c(O)c4c3C2=O)NC(=O)/C(C)=C\C=C\[C@H](C)[C@H](O)[C@@H](C)[C@@H](O)[C@@H](C)[C@H](OC(C)=O)[C@@H]1C` [RIFAMPIN], the minimal inhibitory concentration (MIC) in series [6] turned out to be 0.24 µM (≈ 0.198 µg/mL).

For the molecule `CN(C)c1ccc2c(ccc(/C=C/c3ccc[nH]3)[n+]2C)c1`, the concentration for half-maximal inhibition (IC50) in [1] worked out at 1.54 µM; in series [2], 77.8 µM; in series [3], 66.9 µM; in [4] it was 76 µM. For the same molecule, the figures for the selectivity ratio in series [5] and in series [7] were 50.5 and 3.11, respectively. In [6], the MIC turned out to be 25 µM.
